Assay results reported in patent US8637237B2, “Methods, compositions, and systems for the identification of species-specific or developmental stage-specific insecticides” (The University of North Carolina at Greensboro, priority 2003, dated 2014).

Molecular target: T1, EcRB1/DmUSPF2 (Drosophila melanogaster, UniProt P34021)
T1 construct: The plasmid encodes a version of EcRB1 that includes 878 amino acids, and deletes the F domain; expressed in transfected cells; host or cells: CHO (mammalian cells)
T1 sequence (P34021 1-878): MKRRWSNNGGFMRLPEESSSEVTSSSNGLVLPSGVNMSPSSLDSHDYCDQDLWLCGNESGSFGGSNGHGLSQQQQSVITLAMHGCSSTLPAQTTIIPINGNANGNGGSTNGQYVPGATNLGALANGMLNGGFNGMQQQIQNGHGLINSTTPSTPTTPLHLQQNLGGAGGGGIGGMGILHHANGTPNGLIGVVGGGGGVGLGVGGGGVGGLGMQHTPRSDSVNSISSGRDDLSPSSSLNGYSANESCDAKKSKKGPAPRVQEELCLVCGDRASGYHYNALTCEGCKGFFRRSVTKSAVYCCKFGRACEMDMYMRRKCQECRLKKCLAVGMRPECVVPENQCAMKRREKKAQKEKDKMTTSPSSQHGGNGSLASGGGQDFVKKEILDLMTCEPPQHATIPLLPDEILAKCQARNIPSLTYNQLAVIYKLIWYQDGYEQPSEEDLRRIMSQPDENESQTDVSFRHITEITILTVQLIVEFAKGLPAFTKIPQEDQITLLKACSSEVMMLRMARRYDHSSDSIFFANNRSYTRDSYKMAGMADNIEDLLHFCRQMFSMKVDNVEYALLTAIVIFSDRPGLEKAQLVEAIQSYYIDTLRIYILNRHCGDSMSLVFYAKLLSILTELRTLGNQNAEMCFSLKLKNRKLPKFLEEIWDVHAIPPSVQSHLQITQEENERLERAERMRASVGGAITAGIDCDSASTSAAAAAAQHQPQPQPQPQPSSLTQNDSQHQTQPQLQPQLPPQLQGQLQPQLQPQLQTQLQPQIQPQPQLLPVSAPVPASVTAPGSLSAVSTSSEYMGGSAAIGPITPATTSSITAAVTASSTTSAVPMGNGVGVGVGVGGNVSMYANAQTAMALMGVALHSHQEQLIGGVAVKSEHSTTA
T1 sequence (P20153 104-507 partner limits assumed): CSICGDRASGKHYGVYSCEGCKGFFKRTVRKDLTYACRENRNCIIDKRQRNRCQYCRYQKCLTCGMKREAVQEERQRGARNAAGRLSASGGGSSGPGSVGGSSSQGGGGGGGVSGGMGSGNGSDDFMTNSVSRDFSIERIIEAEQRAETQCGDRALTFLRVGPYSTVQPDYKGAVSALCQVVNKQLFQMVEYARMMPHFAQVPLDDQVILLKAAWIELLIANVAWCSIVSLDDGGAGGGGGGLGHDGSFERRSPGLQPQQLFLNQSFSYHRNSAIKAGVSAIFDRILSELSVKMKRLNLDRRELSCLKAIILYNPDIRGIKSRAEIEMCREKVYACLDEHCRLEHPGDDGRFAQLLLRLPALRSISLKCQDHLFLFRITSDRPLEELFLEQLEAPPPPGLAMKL
Test: Drosophila EcRB1 with Drosophila USPF2, luciferase reporter in mammalian cells (FIG. 6)
Type: cell-based
Conditions: for increase of the effect of 0.1 μM murA: with 0.1 μM murA
Experimental: Unless noted otherwise, 100 ng of each EcR and USP plasmid was transfected into 2 ml of cell culture medium. As noted above, a reporter gene carrying five tandem copies of the hsp27 ecdysone response element (Riddihough and Pelham, 1986) is attached to a constitutive thymidine kinase promoter and a luciferase reporter gene (pEcREtk-LUC) and cotransfected into the cells along with vectors expressing EcR, USP, and a constitutively active β-galactosidase gene with lipofection, following manufacturer's protocols. The subsequent measure of luciferase activity reflects ecdysteroid-inducible transcription.
The Drosophila EcR isoform vectors (A, B1, and B2) used for these experiments have been described previously (Mouillet et al, 2001). These vectors lack the F-domain, which is also not essential for in vivo function (Cherbas et al, 2003). Additionally, three different VP16-USP vectors were utilized. Construction is of the VP16-USP vectors is described below. As in the earlier study, hsp27-EcRE mediated transcriptional activity was measured by detecting the luminescence produced by luciferase in transfected cell extracts. Luciferase activity was normalized by transfection with a plasmid that constitutively expresses the β-galactosidase gene such that enzymatic activity correlated with cellular mass.
After a 4 hour transfection period, the hormone treatment was applied by diluting stock solutions of muristerone A (murA; Alexis Corporation, San Diego, Calif.), JHI (Scitech), JHIII (Sigma, St Louis, Mo.), and/or 20E (Sigma, St Louis, Mo.) in DMSO. The cells were harvested 24 hours after treatment and the contents of the cells extracted for performing the luciferase and β-galactosidase assays.

| Structure (SMILES) | increase of the effect of 0.1 μM murA | stimulation of EcRB1/USPF2 complex (0.1 μM and 1.0 μM murA) |
| --- | --- | --- |
| COC(=O)/C=C(\C)CC/C=C(\C)CC[C@H]1OC1(C)C [JHIII, juvenile hormone III] | increased | – |
| CC(C)=CCCC(C)=CCCC(C)=CC(=O)O [farnesoic acid] | increased | – |
| COC(=O)/C=C(\C)CC/C=C(\C)CCC=C(C)C [methyl farnesoate] | increased | – |
| CC(C)CC[C@@H](O)[C@](C)(O)[C@H]1CC[C@@]2(O)C3=CC(=O)[C@]4(O)C[C@@H](O)[C@@H](O)C[C@]4(C)[C@H]3[C@H](O)C[C@]12C [murA, muristerone A] | – | stimulated |
